{"source": "ChEMBL document CHEMBL1145882", "about": "“High affinity, bioavailable 3-amino-1,4-benzodiazepine-based gamma-secretase inhibitors” (Bioorg Med Chem Lett, 2003)", "key": {"Gamma-secretase": {"biological_target": "Gamma-secretase", "assay": "In vitro inhibition of gamma secretase.", "assay_type": "protein-complex assay, Homo sapiens"}, "[1]": {"assay": "Area under curve at 4 hr in rat", "assay_type": "ADME, organism-based", "design": "time < 4 hr", "settings": "in vivo"}, "[2]": {"assay": "Cmax value at 5 mg/kg po in rat", "assay_type": "ADME, organism-based", "design": "dose 5 mg/kg, route oral", "settings": "in vivo"}, "[3]": {"assay": "Cmax value at 1 mg/kg po in rat", "assay_type": "ADME, organism-based", "design": "dose 1 mg/kg, route oral", "settings": "in vivo"}, "[4]": {"assay": "Half life period was determined", "assay_type": "ADME", "settings": "rat"}, "[5]": {"assay": "Bioavailability in rat", "assay_type": "ADME, organism-based", "settings": "in vivo"}, "[6]": {"assay": "Cmax value at 5 mg/kg po was determined in rat", "assay_type": "ADME, organism-based", "design": "dose 5 mg/kg, route oral", "settings": "in vivo"}}, "data": [{"smiles": "C[C@@H](Cc1ccc(F)c(F)c1)C(=O)NC1N=C(c2ccc(C(N)=O)cc2)c2ccccc2N(C)C1=O", "note": "(stereo partly specified)", "values": [{"measurement": "IC50", "setting": "Gamma-secretase", "result": 0.49, "unit": "nM"}]}, {"smiles": "C[C@@H](Cc1ccc(F)c(F)c1)C(=O)N[C@H]1N=C(c2ccc3c(c2)CCCC3=O)c2ccccc2N(C)C1=O", "values": [{"measurement": "IC50", "setting": "Gamma-secretase", "result": 2.2, "unit": "nM"}]}, {"smiles": "C[C@@H](Cc1ccc(F)c(F)c1)C(=O)N[C@H]1N=C(c2ccc3c(c2)CCN(C)C3=O)c2ccccc2N(C)C1=O", "values": [{"measurement": "IC50", "setting": "Gamma-secretase", "result": 1880, "unit": "nM"}]}, {"smiles": "C[C@@H](Cc1ccc(F)c(F)c1)C(=O)N[C@H]1N=C(c2ccc3c(c2)OC(F)(F)O3)c2ccccc2N(C)C1=O", "values": [{"measurement": "IC50", "setting": "Gamma-secretase", "result": 28, "unit": "nM"}]}, {"smiles": "C[C@@H](Cc1ccc(F)c(F)c1)C(=O)N[C@H]1N=C(c2ccc3c(=O)ccoc3c2)c2ccccc2N(C)C1=O", "values": [{"measurement": "IC50", "setting": "Gamma-secretase", "result": 1.2, "unit": "nM"}]}, {"smiles": "C[C@@H](Cc1ccc(F)c(F)c1)C(=O)N[C@H]1N=C(c2ccc3c(c2)OCO3)c2ccccc2N(C)C1=O", "values": [{"measurement": "AUC at 4 h", "setting": "[1]", "result": 90, "unit": "nM·h"}, {"measurement": "IC50", "setting": "Gamma-secretase", "result": 13.2, "unit": "nM"}, {"measurement": "Cmax", "setting": "[2]", "result": 0.04, "unit": "µM"}]}, {"smiles": "C[C@@H](Cc1ccc(F)c(F)c1)C(=O)N[C@H]1N=C(c2ccc3c(c2)CCNC3=O)c2ccccc2N(C)C1=O", "values": [{"measurement": "AUC at 4 h", "setting": "[1]", "result": "< 4", "unit": "nM·h"}, {"measurement": "IC50", "setting": "Gamma-secretase", "result": 0.3, "unit": "nM"}, {"measurement": "Cmax", "setting": "[3]", "result": 0.002, "unit": "µM"}]}, {"smiles": "C[C@@H](Cc1ccc(F)c(F)c1)C(=O)N[C@H]1N=C(c2ccc3c(=O)[nH]ccc3c2)c2ccccc2N(C)C1=O", "values": [{"measurement": "IC50", "setting": "Gamma-secretase", "result": 0.2, "unit": "nM"}]}, {"smiles": "C[C@@H](Cc1ccc(F)c(F)c1)C(=O)N[C@H]1N=C(c2ccc3c(c2)OCO3)c2ccccc2N(CC(=O)N(C)C)C1=O", "values": [{"measurement": "IC50", "setting": "Gamma-secretase", "result": 5.5, "unit": "nM"}]}, {"smiles": "C[C@@H](Cc1ccc(F)c(F)c1)C(=O)N[C@H]1N=C(c2ccc3c(c2)OCO3)c2ccccc2N(CC(N)=O)C1=O", "values": [{"measurement": "half-life", "setting": "[4]", "result": 1.4, "unit": "h"}, {"measurement": "bioavailability", "setting": "[5]", "result": 22, "unit": "%"}, {"measurement": "AUC at 4 h", "setting": "[1]", "result": 2900, "unit": "nM·h"}, {"measurement": "IC50", "setting": "Gamma-secretase", "result": 13.2, "unit": "nM"}, {"measurement": "Cmax", "setting": "[6]", "result": 0.9, "unit": "µM"}]}, {"smiles": "CC(=O)CCN1C(=O)[C@@H](NC(=O)[C@@H](C)Cc2ccc(F)c(F)c2)N=C(c2ccc3c(c2)OCO3)c2ccccc21", "values": [{"measurement": "IC50", "setting": "Gamma-secretase", "result": 3.7, "unit": "nM"}]}, {"smiles": "COC(=O)CN1C(=O)[C@@H](NC(=O)[C@@H](C)Cc2ccc(F)c(F)c2)N=C(c2ccc3c(c2)OCO3)c2ccccc21", "values": [{"measurement": "IC50", "setting": "Gamma-secretase", "result": 12.7, "unit": "nM"}]}, {"smiles": "C[C@@H](Cc1ccc(F)c(F)c1)C(=O)N[C@H]1N=C(c2ccc3c(c2)OCO3)c2ccccc2NC1=O", "values": [{"measurement": "IC50", "setting": "Gamma-secretase", "result": 1.8, "unit": "nM"}]}, {"smiles": "C[C@@H](Cc1ccc(F)c(F)c1)C(=O)N[C@H]1N=C(c2ccc3c(c2)OCO3)c2ccccc2N(CCO)C1=O", "values": [{"measurement": "IC50", "setting": "Gamma-secretase", "result": 0.9, "unit": "nM"}]}, {"smiles": "C[C@@H](Cc1ccc(F)c(F)c1)C(=O)N[C@H]1N=C(c2ccc3c(c2)CCC(=O)N3)c2ccccc2N(C)C1=O", "values": [{"measurement": "IC50", "setting": "Gamma-secretase", "result": 101, "unit": "nM"}]}, {"smiles": "CNC(=O)CN1C(=O)[C@@H](NC(=O)[C@@H](C)Cc2ccc(F)c(F)c2)N=C(c2ccc3c(c2)OCO3)c2ccccc21", "values": [{"measurement": "IC50", "setting": "Gamma-secretase", "result": 1.8, "unit": "nM"}]}, {"smiles": "C[C@@H](Cc1ccc(F)c(F)c1)C(=O)N[C@H]1N=C(c2ccc3c(c2)OCCO3)c2ccccc2N(C)C1=O", "values": [{"measurement": "IC50", "setting": "Gamma-secretase", "result": 4.7, "unit": "nM"}]}, {"smiles": "C[C@@H](Cc1ccc(F)c(F)c1)C(=O)N[C@H]1N=C(c2ccc3c(c2)CCC3=O)c2ccccc2N(C)C1=O", "values": [{"measurement": "IC50", "setting": "Gamma-secretase", "result": 3.6, "unit": "nM"}]}]}
